The text below walks through data of patent publication US20080051429A1, “USE OF 4-AMINO-PIPERIDINES FOR TREATING SLEEP DISORDERS” (priority 2006, published 2008).

Where a name gives a salt, the structure may show the parent alone. Read-outs that look alike come from different tables or passages of the source.

The target in the assay is T1, 5-HT2A receptor (Homo sapiens, UniProt P28223).
T1 construct: expressed in transfected cells; host or cells: NIH3T3 cells, pSI expression vector
The assay is described as follows: R-SAT functional receptor assay. The format is cell-based. The conditions noted are these: for Emax: 120 h. How it is done: The functional receptor assay, Receptor Selection and Amplification Technology (R-SAT), was used (with minor modifications from that previously described U.S. Pat. No. 5,707,798) to screen compounds for efficacy at the 5-HT2A receptor. Briefly, NIH3T3 cells were grown in 96 well tissue culture plates to 70-80% confluence. Cells were transfected for 12-16 hours with plasmid DNAs using superfect (Qiagen Inc.) as per manufacture's protocols. R-SAT's were generally performed with 50 ng/well of receptor and 20 ng/well of Beta-galactosidase plasmid DNA. All receptor and G-protein constructs used were in the pSI mammalian expression vector (Promega Inc) as described in U.S. Pat. No. 5,707,798. The 5HT2A receptor gene was amplified by nested PCR from brain cDNA using the oligodeoxynucleotides based on the published sequence (see Saltzman et. al. Biochem. Biophys. Res. Comm. 181:1469-78 (1991)). Large-scale transfections, cells were transfected for 12-16 hours, then trypsinized and frozen in DMSO. Frozen cells were later thawed, plated at 10,000-40,000 cells per well of a 96 well plate that contained drug. With both methods, cells were then grown in a humidified atmosphere with 5% ambient CO2 for five days. Media was then removed from the plates and marker gene activity was measured by the addition of the beta-galactosidase substrate ONPG (in PBS with 5% NP-40). The resulting colorimetric reaction was measured in a spectrophotometric plate reader (Titertek Inc.)at […]. All data were analyzed using the computer program XLFit (IDBSm). Efficacy is the percent maximal repression compared to repression by a control compound (ritanserin in the case of 5HT2A). pIC50 is the negative of the log(IC50), where IC50 is the calculated concentration in Molar that produces 50% maximal repression.
Briefly, the 5-HT2A receptor, and the alpha subunit of the guanine nucleotide binding protein Gq were transiently transfected into NIH3T3 cells and assayed using the functional receptor assay, Receptor Selection and Amplification Technology (R-SAT) essentially as disclosed in U.S. Pat. No. 5,707,798. Each compound was screened at seven serially diluted concentrations in triplicate. Data were analyzed using least squares fit analysis with GraphPad Prism (San Diego, Calif.), and are reported normalized to percent response.
R-SAT assays (as described in Example 42) were carried out with cells transfected with receptors (listed below) to determine the receptor selectivity profile for compound 26HCH16D. 5HT2A inverse agonist data (IC50 nM; % efficacy) were derived from detailed dose response curves (7 points in triplicate).
The functional receptor assay, Receptor Selection and Amplification Technology (R-SAT), was used (with minor modifications from that previously described U.S. Pat. No. 5,707,798) to screen compounds for efficacy at the 5-HT2A receptor. The RSAT assay was conducted as described herein.
The functional receptor assay, Receptor Selection and Amplification Technology (R-SAT), was used (with minor modifications from that previously described U.S. Pat. No. 5,707,798, which is incorporated herein by reference in its entirety) to screen compounds for efficacy at the 5-HT2A receptor. The RSAT assay was conducted as described herein.

Where [1] appears, read: compared to ritanserin, read-out: 5HT2A % inhibition.
Setting [2] is: Table 6, read-out: 5HT2A pIC50 (converted).
[3] abbreviates: Table 5, read-out: 5HT2A pIC50 (converted).

T1 sequence (P28223 whole entry): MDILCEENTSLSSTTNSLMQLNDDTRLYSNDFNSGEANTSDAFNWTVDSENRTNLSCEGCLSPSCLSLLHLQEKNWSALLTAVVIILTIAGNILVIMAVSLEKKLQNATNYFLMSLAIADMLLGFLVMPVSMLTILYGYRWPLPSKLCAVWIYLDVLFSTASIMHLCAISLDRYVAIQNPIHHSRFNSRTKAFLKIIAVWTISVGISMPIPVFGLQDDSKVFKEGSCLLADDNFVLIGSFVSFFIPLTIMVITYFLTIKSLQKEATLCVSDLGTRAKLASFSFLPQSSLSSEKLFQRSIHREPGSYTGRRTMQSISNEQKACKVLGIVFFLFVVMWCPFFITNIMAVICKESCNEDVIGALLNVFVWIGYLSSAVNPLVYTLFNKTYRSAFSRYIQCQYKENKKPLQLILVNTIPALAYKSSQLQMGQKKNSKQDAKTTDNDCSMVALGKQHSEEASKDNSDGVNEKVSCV

For `CCOc1ccc(CC(=O)N(Cc2ccc(F)cc2)C2CCN(C)CC2)cc1` [Example 63ELH21, 2-(4-Ethoxyphenyl)-N-(4-fluorobenzyl)-N-(1-methylpiperidin-4-yl)acetamide], the Emax (read-out: Percent Efficacy, compared to ritanserin) is 100%. Moreover, the IC50 (Table 3, read-out: pIC50 (converted)) was 3.16 nM.
On to `Cc1ccc(CC2N(Cc3ccc(OC(F)(F)F)cc3)C(=O)OC23CCN(C)CC3)cc1` (stereo not shown) [Example 69NLS21, 8-Methyl-4-(4-methylbenzyl)-3-(4-trifluoromethoxybenzyl)-1-oxa-3,8-diaza-spiro[4.5]decan-2-one, hydrochloride], for which the Emax under setting [1] was 83%. Also, the IC50 under setting [2] is 0.794 nM.
Regarding `COc1ccc(CN2C(=O)OC3(CCN(C)CC3)C2Cc2ccc(C)cc2)cc1` (stereo not shown) [Example 69NLS35, 3-(4-Methoxybenzyl)-8-methyl-4-(4-methylbenzyl)-1-oxa-3,8-diaza-spiro[4.5]decan-2-one, hydrochloride], the Emax under setting [1] turned out to be 103%. Further, the IC50 under setting [2] is 0.251 nM.
In the same order, the values of `CN1CCC2(CC1)OC(=O)N(Cc1ccc(OCC3CC3)cc1)C2Cc1ccc(F)cc1` (stereo not shown) [Example 69NLS52, 3-(4-Cyclopropylmethoxybenzyl)-4-(4-fluorobenzyl)-8-methyl-1-oxa-3,8-diaza-spiro[4.5]decan-2-one, hydrochloride] are 87% and 0.251 nM.
For `CC(C)COc1ccc(CN2C(=O)OC3(CCN(CCC4OCCO4)CC3)C2Cc2ccc(F)cc2)cc1` (stereo not shown) [Example 69NLS79-II, 8-(2-[1,3]Dioxolan-2-yl-ethyl)-4-(4-fluorobenzyl)-3-(4-isobutoxybenzyl)-1-oxa-3,8-diaza-spiro[4.5]decan-2-one, hydrochloride], in that order: 101% and 7.94 nM.
In the case of `CC(C)COc1ccc(CN2C(=O)OC3(CCNCC3)C2Cc2ccc(F)cc2)cc1` (stereo not shown) [Example 69NLS81, 4-(4-Fluorobenzyl)-3-(4-isobutoxybenzyl)-1-oxa-3,8-diaza-spiro[4.5]decan-2-one, hydrochloride], the Emax under setting [1] worked out at 85%. Further, the IC50 under setting [2] was 5.01 nM.
For `CC(C)COc1ccc(CN2C(=O)OC3(CCN(CCCN4CCOCC4)CC3)C2Cc2ccc(F)cc2)cc1` (stereo not shown) [Example 69NLS83, 4-(4-Fluorobenzyl)-3-(4-isobutoxybenzyl)-8-(3-morpholin-4-yl-propyl)-1-oxa-3,8-diaza-spiro[4.5]decan-2-one, dihydrochloride], in that order: 85% and 10 nM.
In the same order, the values of `CC(C)COc1ccc(CN2C(=O)OC3(CCN(C(C)C)CC3)C2Cc2ccc(F)cc2)cc1` (stereo not shown) [Example 69NLS85, 4-(4-Fluorobenzyl)-3-(4-isobutoxybenzyl)-8-isopropyl-1-oxa-3,8-diaza-spiro[4.5]decan-2-one, hydrochloride] are 95% and 0.794 nM.
Turning to `CC(C)COc1ccc(CC(=O)N(Cc2ccc(F)cc2)C2CCN(CCCN3CCCC3=O)CC2)cc1` [Example 098AF76-65, N-(4-Fluorobenzyl)-2-(4-isobutoxyphenyl)-N-{1-[3-(2-oxo-pyrrolidin-1-yl)propyl]piperidin-4-yl}acetamide, hydrochloride], the Emax (read-out: 5HT2A % INH, compared to ritanserin) stood at 100%. Under setting [3], the IC50 was 0.794 nM.
As to `CC(C)COc1ccc(CC(=O)N(Cc2ccc(F)cc2)C2CCN(CCCN3CC(C)CC(C)C3)CC2)cc1` (stereo not shown) [Example 103NLS45-B, N-{1-[3-(3,5-Dimethylpiperidin-1-yl)propyl]piperidin-4-yl}-N-(4-fluorobenzyl)-2-(4-isobutoxyphenyl)acetamide, dihydrochloride], under “read-out: 5HT2A % INH”, the Emax worked out at 84%. Further, the IC50 under setting [3] was 25.1 nM.
On to `CC(C)COc1ccc(CC(=O)N(Cc2ccc(F)cc2)C2CCN(CCCN3CC(C)OC(C)C3)CC2)cc1` (stereo not shown) [Example 103NLS69-A, N-{1-[3-(2,6-Dimethylmorpholin-4-yl)propyl]piperidin-4-yl}-N-(4-fluorobenzyl)-2-(4-isobutoxyphenyl)acetamide, dioxalate], for which the Emax (read-out: 5HT2A % INH) turned out to be 96%. Under setting [3], the IC50 is 2 nM.
For `CCCOc1ccc(CC(=O)N(CCc2ccc(F)cc2)C2CCN(CCCN3C(=O)OC[C@@H]3C(C)C)CC2)cc1` [Example 117NLS03-B, N-[2-(4-Fluorophenyl)ethyl]-N-{1-[3-(4-(S)-isopropyl-2-oxo-oxazolidin-3-yl)propyl]piperidin-4-yl}-2-(4-propoxyphenyl)acetamide, oxalate], the IC50 (5HT2A pIC50, Table 5) was 3.98 nM. Besides, the Emax (read-out: 5HT2A % INH) stood at 85%.
For the compound `CC(C)COc1ccc(CNC(=O)N(Cc2ccc(F)cc2)C2CCN(CCC3OCCCO3)CC2)cc1` [Example 117NLS25, N-{1-[2-(1,3-Dioxan-2-yl)ethyl]piperidin-4-yl}-N-(4-fluorobenzyl)-N′-(4-isobutoxybenzyl)carbamide, tartrate], for the setting “read-out: 5HT2A % INH”, the Emax is 94%. Also, the IC50 under setting [3] is 1.26 nM.
`CC[C@H]1COC(=O)N1CCCN1CCC(N(Cc2ccc(F)cc2)C(=O)Cc2ccc(OCC(C)C)cc2)CC1` [Example 118AF16-80, N-(4-Fluorobenzyl)-2-(4-isobutoxyphenyl)-N-{1-[3-((S)-4-ethyl-2-oxo-oxazolidin-3-yl)-propyl]piperidin-4-yl}acetamide, oxalate] had an IC50 (5HT2A pIC50, Table 5) of 0.794 nM. The Emax (read-out: 5HT2A % INH) was 103%.
Take `CC(C)COc1ccc(CC(=O)N(Cc2ccc(F)cc2)C2CCN(CCC3OC(C)CC(C)O3)CC2)cc1` (stereo not shown) [Example 118AF37-88, N-{1-[2-(4,6-Dimethyl-1,3-dioxan-2-yl)ethyl]piperidin-4-yl}-N-(4-fluorobenzyl)-2-(4-isobutoxyphenyl)acetamide, oxalate]: the Emax (read-out: 5HT2A % INH) came out at 105%. In addition, under setting [3], the IC50 is 0.631 nM.
Turning to `O=C(Cc1ccc2occc2c1)N(Cc1ccc(F)cc1)C1CCN(CCC2OCCCO2)CC1` [Example 128NLS22-A, 2-Benzofuran-5-yl-N-{1-[2-(1,3-dioxan-2-yl)ethyl]piperidin-4-yl}-N-(4-fluorobenzyl)acetamide, tartrate], the Emax (read-out: 5HT2A % INH) is 98%. Under setting [3], the IC50 was 3.16 nM.
“N-(2-Phenylethyl)-N-(piperidin-4-yl)-4-methoxyphenylmethylacetamide [Example 26HCH80-2]”: for the setting “inverse agonist”, the “pIC50 (average)” value came out at 7.78. Moreover, the “Efficacy (average)” value (percent maximal repression compared to ritanserin) worked out at 89.
